# Paper PMC6420151 (Journal of medicinal chemistry, 2017)
# Assays:
# Assay type in all cases: biochemical
# MMP-13 [1] = molecular target: T1, MMP-13 (Homo sapiens, UniProt P45452); test: In vitro type II collagen cleavage assay; settings: 20 μM; intact type II collagen remaining after 24 h at 37 °C
# MMP-13 [2] = molecular target: T1, MMP-13
# MMP-2 = molecular target: T2, MMP-2 (Homo sapiens, UniProt P08253); test: MMP-2 enzyme assay with fTHP substrates; settings: 200 nM
# T2 sequence (P08253 110-660): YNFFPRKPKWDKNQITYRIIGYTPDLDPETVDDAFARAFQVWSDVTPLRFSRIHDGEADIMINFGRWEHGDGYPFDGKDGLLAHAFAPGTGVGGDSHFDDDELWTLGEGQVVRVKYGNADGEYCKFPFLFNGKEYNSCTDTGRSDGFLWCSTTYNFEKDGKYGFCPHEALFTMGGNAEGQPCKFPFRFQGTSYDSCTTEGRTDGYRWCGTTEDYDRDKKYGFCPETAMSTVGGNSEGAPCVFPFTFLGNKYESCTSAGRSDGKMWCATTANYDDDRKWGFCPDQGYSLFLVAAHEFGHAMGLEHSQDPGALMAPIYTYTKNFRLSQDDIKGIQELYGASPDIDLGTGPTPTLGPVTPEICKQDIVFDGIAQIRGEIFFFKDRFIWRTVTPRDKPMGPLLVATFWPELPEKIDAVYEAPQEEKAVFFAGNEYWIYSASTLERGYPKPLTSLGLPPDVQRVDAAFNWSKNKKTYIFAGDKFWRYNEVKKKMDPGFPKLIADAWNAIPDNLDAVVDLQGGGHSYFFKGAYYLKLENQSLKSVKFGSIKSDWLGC
# MMP-8 = MMP-8 (Homo sapiens, UniProt P22894); test: MMP-8 enzyme assay with fTHP substrates; settings: 200 nM
# MMP-8, sequence (P22894 101-467, species assumed): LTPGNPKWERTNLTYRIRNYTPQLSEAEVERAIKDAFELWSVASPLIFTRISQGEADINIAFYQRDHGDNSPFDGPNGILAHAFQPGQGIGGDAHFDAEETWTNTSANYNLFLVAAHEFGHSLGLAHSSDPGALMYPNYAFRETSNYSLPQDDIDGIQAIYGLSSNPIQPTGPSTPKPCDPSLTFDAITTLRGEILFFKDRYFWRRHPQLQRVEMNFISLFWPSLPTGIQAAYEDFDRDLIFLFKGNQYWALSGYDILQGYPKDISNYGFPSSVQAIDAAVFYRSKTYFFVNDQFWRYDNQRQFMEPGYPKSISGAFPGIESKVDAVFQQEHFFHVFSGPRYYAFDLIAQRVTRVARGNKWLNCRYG
smiles,measurement,setting,value
Cc1ccc(CSc2nc(O)c3c(n2)CCC3)cc1 [Compound 5],inhibition of collagenolysis (type II collagen cleavage by MMP-13),MMP-13 [1],nearly inactive
CNC(=O)[C@@H](NC(=O)c1ccc(-c2ccc(CSc3nc4c(c(=O)[nH]3)CCC4)cc2)o1)C(C)C [(S)-17a],improvement of MMP-13 inhibition potency compared to 5,MMP-13 [2]; compared to starting inhibitor 5,~300 fold
same,inhibition of MMP-2 in single-dose assay,MMP-2,moderately active
same,inhibition of MMP-8 in single-dose assay,MMP-8,moderately active
CNC(=O)[C@H](NC(=O)c1ccc(-c2ccc(CSc3nc4c(c(=O)[nH]3)CCC4)cc2)o1)C(C)C [(R)-17a],loss of inhibition activity vs MMP-13 compared to the (S)-enantiomer,MMP-13 [2]; D-valine analogue compared to L-valine analogue,ca. 40 fold
